Earlier results as cited in US10610595B2, “Stabilized pharmaceutical formulations of insulin analogues and/or insulin derivatives” (SANOFI, priority 2014, dated 2020).

Tested on: blood glucose level
Details: Lill, Pharmazie in unserer Zeit 2001

Substance | amount corresponding to 1 U
human insulin | approximately 35 μg

Same assay, conditions: product information

Substance | amount corresponding to 100 U [mg]
insulin detemir [insulin determir] | 14.2
insulin glargine | 3.64
insulin lispro | 3.5
insulin aspart | 3.5
insulin glulisine | 3.49
